# “Also recorded” adds a separate entry of the source.
# Columns and labels:
# pre-miR-210 RNA = assay: In solution fluorescent binding assay
# Experimental: Dissociation constants for the binding of pre-miR-210 RNA to Hoechst 33342 and Targapremir-210 were determined using an in solution, fluorescent binding assay. RNA was folded in 1× Binding Buffer (8 mM Na2HPO4, 190 mM NaCl, 1 mM EDTA, and 40 μg/mL BSA) at 60° C. for 5 min and then allowed to cool to room temperature for 10 min. Hoechst 33342 or Targapremir-210 was added to a final concentration of 500 nM. Next, 1:2 serial dilutions were performed in 1× Binding Buffer supplemented with 500 nM of Hoechst 33342 or Targapremir-210. Solutions were incubated for 30 min and then transferred to Corning non-binding surface 96-well black plates. Fluorescence intensity was then measured on a Bio-Tek FLX-800 plate reader. Change in fluorescence intensity was fit as a function of RNA concentration with equation 1: […]
# where I and I0 are the observed fluorescence intensity in the presence and absence of RNA, respectively, Δε is the difference between the fluorescence intensity in the absence and in the presence of infinite RNA concentration, [FL]0 and [RNA]0 are the concentrations of compound (Hoechst 33342 or Targapremir-210) and RNA, respectively, and Kt is the dissociation constant.
# miR-210 [1] = assay: RT-qPCR of miR-210 (mature, pri-, pre-) in MDA-MB-231 cells under hypoxic conditions; type: cell-based
# Experimental: (§1) MDA-MB-231 cells were cultured in RPMI 1640 medium supplemented with 10% FBS (Sigma), 1× Glutagro (Corning), and 1× Pen/Strep (MP Biomedicals, LLC) (growth medium). Cells cultured in normoxia were maintained at 37° C. in ambient atmosphere (˜21% O2) with 5% CO2. Cells cultured in hypoxia were maintained at 37° C., <1% O2 in a nitrogen filled hypoxic chamber (Billups-Rothenberg, Inc.), and 5% CO2.
# (§2) Approximately 200-600 ng of RNA was used in subsequent reverse transcription reactions using a miScript II RT Kit (Qiagen) or a qScript cDNA Synthesis Kit (Quanta Biosciences) per the manufacturers' recommended protocols. Primers for RT-qPCR were purchased from Integrated DNA Technologies (IDT) or Eurofins (Table S1) and used without further purification. RT-qPCR samples were prepared using Power SYBR Green PCR Master Mix (Applied Biosystems) and completed by using a 7900HT Fast Real Time PCR System (Applied Biosystems). Expression levels of RNA were normalized to U6 small nuclear RNA, GAPDH mRNA, or 18S rRNA.
# [2] = test system: miR-210 hairpin precursor (pre-miR-210), Dicer processing; assay: In vitro Dicer protection assay; type: biochemical; conditions: recombinant human Dicer, gel quantification
# Experimental: The miR-210 precursor was 5′-end labeled with [γ-^32P] ATP and T4 polynucleotide kinase as previously described^4. The RNA was then folded in 1× Reaction Buffer (Genlantis) by heating at 60° C. for 5 min and slowly cooling to room temperature, where it was then supplemented with 1 mM ATP and 2.5 mM MgCl2. Targapremir-210 was added to the reaction mixture and the samples were allowed to incubate at room temperature for 15 min. Recombinant human Dicer enzyme (Genlantis) was added to a final concentration of 0.01 U/μL and the samples were incubated for an additional 30 min at 37 ° C. Reactions were stopped by adding in 2× Gel Loading Buffer (8 M urea, 50 mM EDTA, 0.05% (w/v) bromophenol blue, 0.05% (w/v) xylene cyanol). To generate sequencing markers, pre-miR-210 was digested with RNase T1 (0.125 U/μL) in T1 Buffer (25 mM sodium citrate, pH 5, 7 M urea, and 1 mM EDTA) for 20 min at room temperature. An RNA hydrolysis ladder was prepared by incubating RNA in 1× RNA Hydrolysis Buffer (50 mM NaHCO3, 1 mM EDTA, pH 9.4) at 95° C. for 5 min. Cleavage products were resolved on a denaturing 15% polyacrylamide gel, which was imaged using a Molecular Dynamics Typhoon phosphorimager and quantified with Bio-Rad's QuantityOne software.
# HIF-1α mRNA [3] = assay: RT-qPCR of HIF-1α mRNA in hypoxic MDA-MB-231 cells; type: cell-based; conditions: 200 nM
# Experimental: as §1, §2
# GPD1L = assay: RT-qPCR of GPD1L in hypoxic MDA-MB-231 cells; type: cell-based; conditions: 200 nM
# Experimental: as §1, §2
# MDA-MB-231 cells = assay: Apoptosis by Annexin V/propidium iodide staining and flow cytometry; type: cell-based; conditions: 200 nM
# Experimental: as §1
# [4] = test system: panel of hypoxia-associated miRNAs (n=28); assay: Cellular selectivity, RT-qPCR of hypoxia-associated miRNAs; type: cell-based; conditions: 200 nM, MDA-MB-231 cells
# Experimental: as §1, §2
# [5] = test system: miRNAs with predicted compound binding sites; assay: Cellular selectivity, RT-qPCR of RNA isoforms; type: cell-based; conditions: hypoxic MDA-MB-231 cells
# Experimental: as §1, §2
# [6] = test system: miR-210 hairpin precursor; assay: Cellular Chem-CLIP and C-Chem-CLIP, miR-210; type: cell-based; conditions: read-out: concentration required to inhibit ˜50% of the reaction of Targapremir-210-CA-Biotin with the miR-210 hairpin precursor (C-Chem-CLIP); MDA-MB-231 cells, 200 nM probe
# Experimental: (§3) MDA-MB-231 cells were grown in growth medium as monolayers in 60 mm dishes to ˜60% confluency. […] Cells were immediately placed under hypoxic conditions for 48 h, and total RNA was extracted using a Quick-RNA MiniPrep (Zymo Research) per the manufacturer's protocol. Approximately 10 μg of total RNA was incubated with 100 μL of streptavidin-agarose beads in 1× PBS for 1 h at room temperature with gentle shaking. The solution was removed and the beads were washed 8 times with 300 μL of in 1× PBS. Bound RNA was released from the beads by heating in 1× Elution Buffer (95% formamide, 10 mM EDTA, pH 8.2) at 60° C. for 20 min. The pulled-down RNA was purified using a Quick-RNA MiniPrep Kit (Zymo Research) and then used for subsequent RT and qPCR reactions as described above.
# (§4) The relative fold-change in the amount of an RNA before and after pull-down was calculated by the ΔΔCt method as shown in equation 1: […]
# (§5) Relative Fold−Change:2^−(ΔC^t ^before pull-down−Δc^t ^after pull-down) (1)
# (§6) where the “ΔCt before pull-down” is the difference between the Ct values for the RNA of interest and a housekeeping gene (U6 small nuclear RNA, GAPDH mRNA, or 18S rRNA) in total RNA isolated from cells and “ΔCtafter pull-down” is the difference between the Ct values the RNA of interest and the same housekeeping gene after pull-down.
# [7] = test system: hypoxia-associated miRNAs; assay: Cellular Chem-CLIP and C-Chem-CLIP, hypoxia-associated miRNAs; type: cell-based
# Experimental: as §3, §4, §5, §6
# [8] = test system: 15 miRNAs that have an RNA isoform that binds Targapremir-210; assay: Cellular Chem-CLIP, RNA isoforms; type: cell-based; conditions: MDA-MB-231 cells; miR-497, miR-1273c, miR-3174, miR-107
# Experimental: as §3, §4, §5, §6
# [9] = test system: miR-96 and miR-210 levels; assay: Effect on miR-96 and miR-210 levels under hypoxic conditions; type: cell-based
# Topoisomerase II = biological target: T1, Topoisomerase II (Homo sapiens, UniProt P11388); assay: In vitro topoisomerase inhibition assay; type: biochemical; conditions: 200 nM
# T1 construct: purchased TopoGEN, Inc
# T1 sequence (P11388 whole entry): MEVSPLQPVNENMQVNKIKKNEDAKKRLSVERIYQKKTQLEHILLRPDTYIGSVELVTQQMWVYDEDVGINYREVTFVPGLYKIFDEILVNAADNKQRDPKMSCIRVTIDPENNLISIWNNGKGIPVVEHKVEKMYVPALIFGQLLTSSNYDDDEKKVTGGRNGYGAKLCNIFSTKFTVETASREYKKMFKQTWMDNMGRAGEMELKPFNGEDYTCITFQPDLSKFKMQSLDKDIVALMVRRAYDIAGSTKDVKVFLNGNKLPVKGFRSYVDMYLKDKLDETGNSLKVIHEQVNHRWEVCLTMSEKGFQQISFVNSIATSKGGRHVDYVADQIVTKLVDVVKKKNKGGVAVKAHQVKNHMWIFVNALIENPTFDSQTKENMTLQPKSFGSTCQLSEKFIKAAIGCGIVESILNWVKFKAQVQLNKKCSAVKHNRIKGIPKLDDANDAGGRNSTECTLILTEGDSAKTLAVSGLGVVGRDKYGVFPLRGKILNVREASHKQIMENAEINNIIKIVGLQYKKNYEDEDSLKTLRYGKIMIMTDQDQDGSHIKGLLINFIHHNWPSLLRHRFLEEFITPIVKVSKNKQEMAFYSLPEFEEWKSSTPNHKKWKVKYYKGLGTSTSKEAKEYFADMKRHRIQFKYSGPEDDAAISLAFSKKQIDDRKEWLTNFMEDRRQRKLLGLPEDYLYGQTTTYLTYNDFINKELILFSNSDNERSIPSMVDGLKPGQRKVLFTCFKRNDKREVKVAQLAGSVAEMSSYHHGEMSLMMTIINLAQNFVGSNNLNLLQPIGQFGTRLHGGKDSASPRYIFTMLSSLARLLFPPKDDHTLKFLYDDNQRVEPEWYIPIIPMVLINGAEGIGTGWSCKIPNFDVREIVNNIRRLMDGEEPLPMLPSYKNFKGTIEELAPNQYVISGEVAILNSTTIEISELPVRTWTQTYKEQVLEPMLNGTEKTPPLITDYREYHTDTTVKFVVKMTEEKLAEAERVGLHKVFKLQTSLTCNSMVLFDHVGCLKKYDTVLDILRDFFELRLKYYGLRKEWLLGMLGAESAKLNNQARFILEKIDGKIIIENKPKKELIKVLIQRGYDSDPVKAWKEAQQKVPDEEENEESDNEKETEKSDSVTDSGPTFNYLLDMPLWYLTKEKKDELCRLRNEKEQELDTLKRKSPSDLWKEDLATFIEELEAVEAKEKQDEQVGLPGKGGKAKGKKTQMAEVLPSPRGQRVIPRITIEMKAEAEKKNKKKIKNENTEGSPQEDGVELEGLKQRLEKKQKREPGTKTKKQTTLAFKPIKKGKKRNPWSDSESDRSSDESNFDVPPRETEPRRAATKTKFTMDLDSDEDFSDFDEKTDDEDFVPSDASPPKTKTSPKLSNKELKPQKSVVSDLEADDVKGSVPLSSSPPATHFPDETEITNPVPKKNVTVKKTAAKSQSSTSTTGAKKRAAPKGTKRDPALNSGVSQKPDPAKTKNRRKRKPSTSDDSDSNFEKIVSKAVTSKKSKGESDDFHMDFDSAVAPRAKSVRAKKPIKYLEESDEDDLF
# Experimental: Topoisomerase II inhibitory activity was measured using a Topoisomerase II Drug Screening Kit (TopoGEN, Inc.) per the manufacturer's protocol. Taragpremir-210 (200 nM) was added to 300 ng of DNA in 1× Complete Buffer (50 mM Tris-HCl, pH 8, 150 mM NaCl, 10 mM MgCl2, 0.5 mM dithiothreitol, 30 μg/mL BSA, and 2 mM ATP), followed by addition of 7.5 U of Topoisomerase II enzyme. The samples were incubated for 30 min at 37° C., and the reaction was stopped by the addition of 2 µL of 10% sodium dodecyl sulfate (SDS). Proteinase K (50 μg/mL) was then added and the solution was incubated for 15 min at 37° C. Topoisomers were separated on 1% agarose gels with or without 0.5 μg/mL ethidium bromide. Note, for gels containing ethidium bromide, the 1× TAE running buffer was also supplemented with 0.5 μg/mL ethidium bromide. Gels prepared without ethidium bromide were post-stained (0.5 μg/mL ethidium bromide). Both types of gels were destained in 1× TAE for 15 min, and the DNA products were visualized using a Bio-Rad Gel Doc XR+imaging system.
# [10] = test system: MDA-MB-231-GFP-Luc tumors; assay: TNBC mouse xenograft model, tumor burden; type: in vivo, NOD/SCID mice; conditions: 200 nM, cell pre-treatment or single injection 24 h post-implantation; 21 days
# Experimental: NOD/SCID mice (B6.CB17-Prkdcscid/Sz, Jackson Laboratories) were housed in the Scripps Florida vivarium. All live animal experiments were approved by the Scripps Florida Institutional Animal Care and Use Committee. Two sets of experiments were completed: treatment of MDA-MB-231-GFP-luc cells prior to implantation and treatment of mice post-tumor implantation. For pre-treatment of tumor cells, MDA-MB-231-GFP-luc cells (5×10^6) were treated with or without Targapremir-210 (200 nM) or anti-miR-210 antagomir (500 nM) for 48 h pre-implantation. A 100 μL PBS/Matrigel (1:1; BD Biosciences) cell suspension was subcutaneously transplanted into mouse breast fat pads. Alternatively, mouse breast fat pads were injected with a 100 μL PBS/Matrigel (1:1) cell suspension (5×10^6MDA-MB-231-GFP-luc cells) followed by intraperitoneal (i.p) injection of Targapremir-210 (100 μL of 200 nM) or anti-miR-210 antagomir (100 μL of 500 nM) 24 h post-transplantation.
# Tumor growth was monitored weekly post-implantation by i.p. injection of 200 μL D-luciferin (15 mg/mL) and imaging with an IVIS 200 system. Tumors were resected 21 days post-transplantation following euthanasia. Levels of mature miR-210, HIF-1a, and GPLDL1 RNAs were measured by RT-qPCR as described above.
# miR-210 [11] = assay: RT-qPCR of resected tumors, miR-210; type: in vivo, NOD/SCID mice; conditions: compared to untreated tumors
# Experimental: as §2
# (§7) NOD/SCID mice (B6.CB17-Prkdcscid/Sz, Jackson Laboratories) were housed in the Scripps Florida vivarium. All live animal experiments were approved by the Scripps Florida Institutional Animal Care and Use Committee. Two sets of experiments were completed: treatment of MDA-MB-231-GFP-luc cells prior to implantation and treatment of mice post-tumor implantation. For pre-treatment of tumor cells, MDA-MB-231-GFP-luc cells (5×10^6) were treated with or without Targapremir-210 (200 nM) or anti-miR-210 antagomir (500 nM) for 48 h pre-implantation. […]
# (§8) Tumor growth was monitored weekly post-implantation by i.p. injection of 200 μL D-luciferin (15 mg/mL) and imaging with an IVIS 200 system. […] Levels of mature miR-210, HIF-1a, and GPLDL1 RNAs were measured by RT-qPCR as described above.
# HIF-1α mRNA [12] = assay: RT-qPCR of resected tumors, HIF-1α; type: in vivo, NOD/SCID mice; conditions: compared to untreated tumors
# Experimental: as §2, §7, §8
# GPD1L mRNA = assay: RT-qPCR of resected tumors, GPD1L; type: in vivo, NOD/SCID mice; conditions: compared to untreated tumors
# Experimental: as §2, §7, §8
# [13] = Tumor localization by fluorescent microscopy; type: in vivo, NOD/SCID mice; conditions: single i.p. injection
# Experimental: Resected tumor samples were frozen using O.C.T. Compound (Tissue-Tek) over dry ice. Frozen tissues were sectioned by cryostat and transferred to microscope slides. Fluorescent microscopic analysis was carried out using a Leica DMI3000 B upright fluorescent microscope.
# [14] = biological target: pre-miR-210 Dicer site, 5′ACU3′/3′UCA5′; conditions: 5′ACU3′/3′UCA5′ motif; reference 15; read-out: Kd, binding affinity for the pre-miR-210 Dicer site; cited from earlier work
# [15] = test system: RNA in which the Dicer site was ablated; conditions: reference 15; cited from earlier work
# [16] = 200 nM, hypoxic MDA-MB-231 cells
compound,measurement,setting,value
"CCOc1ccc(-c2nc3ccc(-c4nc5ccc(N6CCN(C)CC6)cc5[nH]4)cc3[nH]2)cc1 [Hoechst 33342, reference compound]",affinity for pre-miR-210,pre-miR-210 RNA; up to 5000 nM pre-miR-210 added,No saturable binding was observed
same,mature miR-210 levels,miR-210 [1]; [16],no statistically significant effect
CN1CCN(c2ccc3nc(-c4ccc5[nH]c(-c6cccc(OCCCC(=O)NCCCN=[N+]=[N-])c6)nc5c4)[nH]c3c2)CC1 [Targapremir-210],inhibition of Dicer processing of pre-miR-210 in vitro,[2],inhibited pre-miR-210 processing at nanomolar concentrations
same,binding to in vitro transcribed pre-miR-210,pre-miR-210 RNA; compared with binding to the Dicer site motif,binds similarly
same,increase in pre-miR-210 levels,miR-210 [1]; [16],~2.6 fold
same,increase in pri-miR-210 levels,miR-210 [1]; [16],~3 fold
same,IC50,"miR-210 [1]; Homo sapiens, MDA-MB-231 cells, hypoxic conditions, RT-qPCR, read-out: IC50, decrease of mature miR-210 levels",~200 nM
same,reduction of HIF-1α mRNA levels,HIF-1α mRNA [3],~75%
same,increase of GPD1L levels,GPD1L,~4 fold
same,apoptosis,MDA-MB-231 cells; hypoxic conditions,induced apoptosis
same,apoptosis with overexpression of pre-miR-210,"MDA-MB-231 cells; hypoxic conditions, pre-miR-210 overexpressed",allowed cells to escape apoptosis
same,apoptosis,MDA-MB-231 cells; normoxia,did not induce apoptosis
same,effect on levels of hypoxia-associated miRNAs,[4],affected only levels of mature miR-210
same,effect on expression levels of miRNAs with predicted compound binding sites,[5],only affected levels of miR-210; also recorded: no statistically significant effect
same,IC50,[6],200 nM
same,highest relative fold pull-down among hypoxia-associated miRNAs other than miR-210,"[7]; Chem-CLIP probe pull-down, three of 28 enriched (miR-181a, miR-205, miR-206)",~2.8 fold
same,abundance of other hypoxia-associated miRNAs as a function of Targapremir-210 concentration (C-Chem-CLIP),[7]; MDA-MB-231 cells,did not change
same,miRNAs with RNA isoform bound in cells (Chem-CLIP),[8],only four of the miRNAs are bound
same,effect on miR-96 and miR-210 levels,[9],only affects miR-210
same,inhibition of topoisomerase enzymatic activity,Topoisomerase II,did not inhibit topoisomerase activity
same,"tumor growth (luciferase signal intensity, mass of the resected tumor)",[10],significantly decreased tumor growth
same,reduction of miR-210 levels in resected tumors,miR-210 [11],~90%
same,reduction of HIF-1α levels in resected tumors,HIF-1α mRNA [12],~75%
same,GPD1L levels in resected tumors,GPD1L mRNA,doubled
same,compound localization in tumor,[13],able to reach the tumor and sustain for the entire 21-day period
same,Kd,[14],~200 nM
same,binding to RNA in which the Dicer site was ablated,[15],did not bind
Targaprimir-96 [reference compound],effect on miR-96 and miR-210 levels,[9],only affects miR-96
